Test results reported in patent publication US20070196850A1, “Identification of aging genes through large-scale analysis” (priority 2006, published 2007).
Read-outs that look alike come from different tables or passages of the source.

Test system: yeast cells (BY4742)
Format: cell-based, Saccharomyces cerevisiae
Method: FIG. 2 illustrates replicative life span (“RLS”) analysis in yeast. […] A mother cell is a yeast cell that has produced one or more daughter cells. […] The total number of mitotic divisions completed by a given mother cell is the replicative life span for that mother cell. One indicator of senescence in yeast is the inability to produce daughter cells.
A large-scaled, life-span analysis is performed as follows. Approximately three days before initiating a life-span-determination assay, a set of 95 strains contained in a yeast alpha-haploid-deletion collection (Open Biosystems), is transferred to a 96-well plate containing YPDagar using a FX robot, so that each strain occupies one well of a 96-well plate. Concurrently, “wildtype” reference cells (BY4742) are plated within an empty well of the 96-well test plate. For 1-2 days, plated cells are allowed to grow on rich medium, such as YPD, at 30° C. Cells are patched onto life-span-measuring plates containing YPD so that approximately 12 strains are plated per plate the night, or approximately 12 hours, before initiating life-span analysis. A life-span experiment is initiated by gridding a region of the plate distal to growing cells, to which 5 cells of each strain of 12 strains are transferred by micromanipulation. Cells are incubated for two hours at 30° C. Then, virgin daughter cells of each deletion variant cell are selected, and original mother cells are removed. Such virgin daughter cells are monitored for de novo production of daughters at 2-3 hour intervals. Produced daughters are individually removed, and tabulated. Mother cells are placed back at 30° C. to allow continued growth. During evening hours, cells are moved to 4° C. so that the cell division rate is reduced to one cell division per evening. The following day, cells are placed at 30° C. to resume growth. This process is continued for a period of time, approximately two weeks, to allow cells of each variant strain to exhaust its proliferative potential. The total number of daughter cells produced by each mother variant cell is tabulated, and determined RLS values are entered into a database.
To perform the life span experiment, 15 μg/mL diazaborine A was added to standard yeast life span plates (YPD). Cells are patched to these plates the night prior to initiation of the life span. The next morning, individual cells were moved to a location on the plate distant from the patch and allow them to divide. The first daughters produced by each mother cell are used to initiate the life span experiment. Subsequently, each daughter cell that these cells produce is removed with a micromanipulator and tabulations are kept.

Row | SMILES | life span of yeast cells on drug treatment (yeast cells treated with drug vs no drug control) | replicative life span in yeast (exposure of yeast cells to MSX) | life span (yeast, 50 uM) | life span (yeast, 100 uM) | life span (yeast, 1 mM) | increase in mean replicative life span (maximal life span extension) (yeast, 1 mM, preliminary experiments) | life span (yeast, 2.5 mM)
1 | C[C@@H]1C[C@@H]([C@H](O)CC2CC(=O)NC(=O)C2)C(=O)[C@@H](C)C1 [cycloheximide] | does not increase life span | – | – | – | – | – | –
2 | CS(=N)(=O)CC[C@H](N)C(=O)O (stereo partly shown) [MSX, methionine sulfoximine] | – | extends replicative life span | significantly increases life span | significantly increases life span | significantly increases life span | 25-30% | significantly increases life span
